This note sets out measurements from patent publication US8697683B2, “Azetidinyl diamides as monoacylglycerol lipase inhibitors” (Janssen Pharmaceutica, NV, priority 2009, dated 2014).

The test addresses T1, MGL (Rattus norvegicus, UniProt Q8R431).
T1 construct: one g rat brain was homogenized
T1 sequence (Q8R431 1-303): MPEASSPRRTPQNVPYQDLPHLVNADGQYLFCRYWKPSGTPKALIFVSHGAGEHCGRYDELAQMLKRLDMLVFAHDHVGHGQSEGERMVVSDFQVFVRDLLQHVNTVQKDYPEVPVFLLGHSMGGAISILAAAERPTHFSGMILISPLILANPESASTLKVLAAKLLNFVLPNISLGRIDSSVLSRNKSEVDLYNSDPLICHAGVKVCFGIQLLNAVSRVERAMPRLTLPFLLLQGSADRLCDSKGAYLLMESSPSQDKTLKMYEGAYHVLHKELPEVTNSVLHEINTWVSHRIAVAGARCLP
The test is described as follows: 2-AG Accumulation Assay (rat brain homogenate). The test is classed as biochemical. Particulars: percent of vehicle 2-AG accumulation; for Rat Brain 2AG % VehCntrl (%) @10 μM: compound 10 μM; for Rat Brain 2AG % VehCntrl (%) @1 μM: compound 1 μM.

As to `O=C(c1ccc(-c2ccccc2)cc1)N1CC(N2CCN(C(=O)c3nccs3)CC2)C1` [Cpd 9, 1-[1-(Biphenyl-4-ylcarbonyl)azetidin-3-yl]-4-(1,3-thiazol-2-ylcarbonyl)piperazine], the “Rat Brain 2AG % VehCntrl (%) @10 μM” value worked out at 1026%.
As to `O=C(c1ccccc1)N1CCN(C2CN(C(=O)c3ccc4nc(-c5cccc(C(F)(F)F)c5)oc4c3)C2)CC1` [Cpd 131, 6-({3-[4-(Phenylcarbonyl)piperazin-1-yl]azetidin-1-yl}carbonyl)-2-[3-(trifluoromethyl)phenyl]-1,3-benzoxazole], the “Rat Brain 2AG % VehCntrl (%) @10 μM” value came out at 1406%.
The same measure, in the same setting: the result for `O=C(c1ccc(-c2ccc(C(F)(F)F)cc2)cc1)N1CC(N2CCN(C(=O)c3nccs3)CC2)C1` [Cpd 150, 1-(1,3-Thiazol-2-ylcarbonyl)-4-(1-{[4′-(trifluoromethyl)biphenyl-4-yl]carbonyl}azetidin-3-yl)piperazine] reads 1104%; that for `N#Cc1cccc(-c2ccc(C(=O)N3CC(N4CCN(C(=O)c5nccs5)CC4)C3)cc2)c1` [Cpd 161, 4′-({3-[4-(1,3-Thiazol-2-ylcarbonyl)piperazin-1-yl]azetidin-1-yl}carbonyl)biphenyl-3-carbonitrile], 1280%.
Still for that read-out and setting: the value for `O=C(c1ccc(-c2cccc(Cl)c2)cc1)N1CC(N2CCN(C(=O)c3nccs3)CC2)C1` [Cpd 162, 1-{1-[(3′-Chlorobiphenyl-4-yl)carbonyl]azetidin-3-yl}-4-(1,3-thiazol-2-ylcarbonyl)piperazine] was 1099%; that for `O=C(c1ccc(-c2ccc(F)cc2)cc1)N1CC(N2CCN(C(=O)c3nccs3)CC2)C1` [Cpd 174, 1-{1-[(4′-Fluorobiphenyl-4-yl)carbonyl]azetidin-3-yl}-4-(1,3-thiazol-2-ylcarbonyl)piperazine] was 1258%.
For `O=C(c1ccc(-c2ccc(Cl)c(Cl)c2)cc1)N1CC(N2CCN(C(=O)c3nccs3)CC2)C1` [Cpd 175, 1-{1-[(3′,4′-Dichlorobiphenyl-4-yl)carbonyl]azetidin-3-yl}-4-(1,3-thiazol-2-ylcarbonyl)piperazine], the “Rat Brain 2AG % VehCntrl (%) @10 μM” value is listed as 1180%.
Same read-out and setting: the result for `Cc1cccc(-c2ccc(C(=O)N3CC(N4CCN(C(=O)c5nccs5)CC4)C3)cc2)c1` [Cpd 176, 1-{1-[(3′-Methylbiphenyl-4-yl)carbonyl]azetidin-3-yl}-4-(1,3-thiazol-2-ylcarbonyl)piperazine] reads 1124%; that for `O=C(c1ccc(-c2ccc(F)c(Cl)c2)cc1)N1CC(N2CCN(C(=O)c3nccs3)CC2)C1` [Cpd 178, 1-{1-[(3′-Chloro-4′-fluorobiphenyl-4-yl)carbonyl]azetidin-3-yl}-4-(1,3-thiazol-2-ylcarbonyl)piperazine], 1192%.
With `O=C(c1ccc(-c2ccc3c(c2)OCO3)cc1)N1CC(N2CCN(C(=O)c3nccs3)CC2)C1` [Cpd 181, 1-(1-{[4-(1,3-Benzodioxol-5-yl)phenyl]carbonyl}azetidin-3-yl)-4-(1,3-thiazol-2-ylcarbonyl)piperazine], the “Rat Brain 2AG % VehCntrl (%) @10 μM” value worked out at 1236%.
Take `O=C(c1ccc(-c2ccc3ccccc3c2)cc1)N1CC(N2CCN(C(=O)c3nccs3)CC2)C1` [Cpd 182, 1-{1-[(4-Naphthalen-2-ylphenyl)carbonyl]azetidin-3-yl}-4-(1,3-thiazol-2-ylcarbonyl)piperazine]: the “Rat Brain 2AG % VehCntrl (%) @10 μM” value amounted to 1500%.
Consider `O=C(c1ccc(-c2cccc([N+](=O)[O-])c2)cc1)N1CC(N2CCN(C(=O)c3nccs3)CC2)C1` [Cpd 183, 1-{1-[(3′-Nitrobiphenyl-4-yl)carbonyl]azetidin-3-yl}-4-(1,3-thiazol-2-ylcarbonyl)piperazine], for which the “Rat Brain 2AG % VehCntrl (%) @10 μM” value is given as 1090%.
The same measure, in the same setting: the result for `CN(C)S(=O)(=O)Nc1cccc(-c2ccc(C(=O)N3CC(N4CCN(C(=O)c5ccccc5)CC4)C3)cc2)c1` [Cpd 205, N,N-Dimethyl-N′-[4′-({3-[4-(phenylcarbonyl)piperazin-1-yl]azetidin-1-yl}carbonyl)biphenyl-3-yl]sulfamide] reads 1172%; that for `CC(=O)c1ccc(-c2ccc(C(=O)N3CC(N4CCN(C(=O)c5nccs5)CC4)C3)cc2)cc1` [Cpd 209, 1-[4′-({3-[4-(1,3-Thiazol-2-ylcarbonyl)piperazin-1-yl]azetidin-1-yl}carbonyl)biphenyl-4-yl]ethanone], 1681%; that for `O=C(c1ccc(-c2ccc([N+](=O)[O-])cc2)cc1)N1CC(N2CCN(C(=O)c3nccs3)CC2)C1` [Cpd 215, 1-{1-[(4′-Nitrobiphenyl-4-yl)carbonyl]azetidin-3-yl}-4-(1,3-thiazol-2-ylcarbonyl)piperazine], 1091%.
Same read-out and setting: the value for `N#CC=Cc1cccc(-c2ccc(C(=O)N3CC(N4CCN(C(=O)c5nccs5)CC4)C3)cc2)c1` [Cpd 223, 3-[4′-({3-[4-(1,3-Thiazol-2-ylcarbonyl)piperazin-1-yl]azetidin-1-yl}carbonyl)biphenyl-3-yl]prop-2-enenitrile] was 1261%.
With `O=C(c1ccc(-c2cccc(C(F)(F)F)c2)cc1)N1CC(N2CCN(C(=O)c3cscn3)CC2)C1` [Cpd 229, 1-(1,3-Thiazol-4-ylcarbonyl)-4-(1-{[3′-(trifluoromethyl)biphenyl-4-yl]carbonyl}azetidin-3-yl)piperazine], the “Rat Brain 2AG % VehCntrl (%) @10 μM” value is 1304%.
Consider `O=C(c1ccc(-c2cccc(C(F)(F)F)c2)cc1)N1CC(N2CCN(C(=O)c3nccs3)CC2)C1` [Cpd 237, 1-(1,3-Thiazol-2-ylcarbonyl)-4-(1-{[3′-(trifluoromethyl)biphenyl-4-yl]carbonyl}azetidin-3-yl)piperazine], for which the “Rat Brain 2AG % VehCntrl (%) @1 μM” value is 1044% and the “Rat Brain 2AG % VehCntrl (%) @10 μM” value is 1182%.
As to `Cc1cc(-c2cccc(C(F)(F)F)c2)ccc1C(=O)N1CC(N2CCN(C(=O)c3nccs3)CC2)C1` [Cpd 239, 1-(1-{[3-Methyl-3′-(trifluoromethyl)biphenyl-4-yl]carbonyl}azetidin-3-yl)-4-(1,3-thiazol-2-ylcarbonyl)piperazine], the “Rat Brain 2AG % VehCntrl (%) @1 μM” value is on record as 1097% and the “Rat Brain 2AG % VehCntrl (%) @10 μM” value amounted to 1353%.
The like results for `O=C(c1nccs1)N1CCN(C2CN(C(=O)c3ccc(-c4cccc(C(F)(F)F)c4)cc3Cl)C2)CC1` [Cpd 250, 1-(1-{[3-Chloro-3′-(trifluoromethyl)biphenyl-4-yl]carbonyl}azetidin-3-yl)-4-(1,3-thiazol-2-ylcarbonyl)piperazine] were, in that order, 1011% and 1327%.
For `CC1(C)CCC(C)(C)c2cc(CCC(=O)N3CC(N4CCN(C(=O)c5nccs5)CC4)C3)ccc21` [Cpd 282, 1-{1-[3-(5,5,8,8-Tetramethyl-5,6,7,8-tetrahydronaphthalen-2-yl)propanoyl]azetidin-3-yl}-4-(1,3-thiazol-2-ylcarbonyl)piperazine], the “Rat Brain 2AG % VehCntrl (%) @10 μM” value was found to be 1775%.
Regarding `CN(CC1CCCCC1)c1ccc(CCC(=O)N2CC(N3CCN(C(=O)c4nccs4)CC3)C2)cc1` [Cpd 291, N-(Cyclohexylmethyl)-N-methyl-4-(3-oxo-3-{3-[4-(1,3-thiazol-2-ylcarbonyl)piperazin-1-yl]azetidin-1-yl}propyl)aniline], the “Rat Brain 2AG % VehCntrl (%) @10 μM” value is on record as 1019%.
Consider `O=C(c1nccs1)N1CCN(C2CN(C(=O)c3sc4cc(C(F)(F)F)ccc4c3Cl)C2)CC1` [Cpd 324, 1-(1-{[3-Chloro-6-(trifluoromethyl)-1-benzothiophen-2-yl]carbonyl}azetidin-3-yl)-4-(1,3-thiazol-2-ylcarbonyl)piperazine], for which the “Rat Brain 2AG % VehCntrl (%) @1 μM” value is given as 1215% and the “Rat Brain 2AG % VehCntrl (%) @10 μM” value came out at 1265%.
`O=C(c1nccs1)N1CCN(C2CN(C(=O)c3sc4cc(Br)ccc4c3Cl)C2)CC1` [Cpd 326, 1-{1-[(6-Bromo-3-chloro-1-benzothiophen-2-yl)carbonyl]azetidin-3-yl}-4-(1,3-thiazol-2-ylcarbonyl)piperazine]: the “Rat Brain 2AG % VehCntrl (%) @1 μM” value was 1336%.
`O=C(c1cc2c(C(F)(F)F)cccc2s1)N1CC(N2CCN(C(=O)c3nccs3)CC2)C1` [Cpd 327, 1-(1,3-Thiazol-2-ylcarbonyl)-4-(1-{[4-(trifluoromethyl)-1-benzothiophen-2-yl]carbonyl}azetidin-3-yl)piperazine]: the “Rat Brain 2AG % VehCntrl (%) @10 μM” value turned out to be 2005%.
In the case of `O=C(c1ccc2c(-c3ccccc3)cccc2c1)N1CC(N2CCN(C(=O)c3nccs3)CC2)C1` [Cpd 338, 1-{1-[(5-Phenylnaphthalen-2-yl)carbonyl]azetidin-3-yl}-4-(1,3-thiazol-2-ylcarbonyl)piperazine], the “Rat Brain 2AG % VehCntrl (%) @1 μM” value was 2111%.
Still for that read-out and setting: the result for `O=C(c1nccs1)N1CCN(C2CN(C(=O)c3sc4cc(-c5ccccc5)ccc4c3Cl)C2)CC1` [Cpd 343, 1-{1-[(3-Chloro-6-phenyl-1-benzothiophen-2-yl)carbonyl]azetidin-3-yl}-4-(1,3-thiazol-2-ylcarbonyl)piperazine] reads 1371%; that for `O=C(c1ccc2c(c1)CCCN2Cc1ccc(C(F)(F)F)cc1)N1CC(N2CCN(C(=O)c3nccs3)CC2)C1` [Cpd 371, 6-({3-[4-(1,3-Thiazol-2-ylcarbonyl)piperazin-1-yl]azetidin-1-yl}carbonyl)-1-(4-trifluoromethylbenzyl)-1,2,3,4-tetrahydroquinoline], 1138%.
As for `O=C(c1ccc(OCc2ccc(Cl)c(Cl)c2)c(F)c1)N1CC(N2CCN(C(=O)c3nccs3)CC2)C1` [Cpd 400, 1-[1-({4-[(3,4-Dichlorobenzyl)oxy]-3 fluorophenyl}carbonyl)azetidin-3-yl]-4-(1,3-thiazol-2-ylcarbonyl)piperazine], the “Rat Brain 2AG % VehCntrl (%) @10 μM” value amounted to 1076%.
